Assays:
[1] = system: mononuclear cells of human peripheral blood; experiment: Differentiation of osteoclasts in mononuclear cells of human peripheral blood: TRAP staining and real-time PCR; type: cell-based; details: M-CSF, RANKL, 9 days
Procedure: The mononuclear cells of human peripheral blood were cultured for 9 days after stimulating with M-CSF, RANKL, and halofuginone. Then, the cells were stained by TRAP according to the manufacturer's manual, and the amount of mRNA of TRAP, NFATc1, calcitonin receptor (CTR), cathepsin K, MMP9, and RANK were confirmed by real-time PCR.

[2] = system: TRAP, NFATc1, b3 integrin, OSCAR, cathepsin K, and MMP9 mRNA; experiment: Real-time PCR of factors associated with osteoclast differentiation in bone marrow cells of arthritis animal model; type: in vivo, mouse; details: bone marrow cells of CIA mice, RANKL treatment, FIG. 4C
Procedure: (§1) For the construction of a mouse model with collagen-induced arthritis (hereinafter, referred to as “CIA”), a 6-week old male DBA/1J mouse was subjected to primary immunization by intradermal injection after mixing the bovine type II collagen (hereinafter, referred to as “CII”) and complete Freud's adjuvant (CFA) in an amount of 100 μL, respectively. After a week thereafter, halofuginone was injected intraperitoneally at 3 day intervals at a concentration of 100 μg/kg and 500 μg/kg, respectively (9 weeks).
The real-time PCR was performed using the LightCycler 2.0 System Instrument and the reaction compounds were prepared by mixing 1 μL of each cDNA, 10 μL of premix Ex Taq as an enzyme for the initiation, and each primer pair to a final volume of 20 μL using distilled water. The reaction conditions were: reacted at 95° C. for 10 minutes, followed by a total of 50 cycles consisting of denaturation at 95° C. for 10 seconds, annealing at 60° C. for 5 seconds, and extension at 72° C. for 10 seconds. The values of cycle threshold (Ct) were analyzed and the amount of mRNA expression for each target was indicated in terms of the amount of beta-actin mRNA expression and the relative quantity. The primers used are shown below.
(§2) Accordingly, the present inventors isolated bone marrow cells from the joint of the animal model with arthritis, cultured the cells under the stimulation of M-CSF and RANKL for 7 days, and subjected them to TRAP staining using the leukocyte acid phosphatase Kit (387-A, Sigma, St. Louis, Mo., USA) according to the manufacturer's manual.
The primers used are shown below.

[3] = system: osteoclasts from mononuclear cells of human peripheral blood; experiment: Bone resorption potential by osteoclasts in human cells; type: cell-based; details: FIG. 6D
Procedure: To examine the effect of halofuginone on the bone resorption potential by osteoclasts, murine bone marrow cells were cultured in Dentine slice, and the cultured cells were stimulated with M-CSF, RANKL, and halofuginone, and cultured for 21 additional days. Then, the cells were removed using 5% sodium hypochlorite solution, subjected to Hematoxylin staining, and the bone resorption lacunae formed by the bone resorption of osteoclasts were photographed.
The effect of halofuginone on the bone resorption potential by osteoclasts was observed using the mononuclear cells of human peripheral blood, in the same manner as described in Example <2-7>.

[4] = system: IL-17 production of T cells via IDO in dendritic cells; experiment: IL-17 ELISA in co-culture of halofuginone-stimulated dendritic cells and T cells; type: cell-based
Procedure: The dendritic cells cultured for 2 days after stimulating with halofuginone and the T cells cultured for 2 days under the condition of differentiating Th17 cells of <2-2> were co-cultured for 2 additional days, and IL-17 was measured using the supernatant by ELISA. That is, the supernatants of the cell cultures were collected and the amount of IL-17 was measured via sandwich ELISA method. To this end, first, the 96-well plate was treated with monoclonal anti-IL-17 ([…]) and reacted at 4° C. overnight, and upon reaction, non-specific binding was blocked using a blocking solution (1% BSA/PBST). Then, IL-17 in a half amount was diluted continuously and used as standards, and the supernatants of cell cultures were reacted at room temperature for 2 hours. Then, the biotinylated anti-IL-17 were reacted at room temperature for 2 hours, washed 4 times, and added with ExtraAvidin-alkaline phosphatase conjugate after dilution, and reacted at room temperature for 2 hours. Subsequently, PNPP/DEA solution was added thereto to develop color and the absorbance was measured at 405 nm.

[5] = system: bone marrow cells differentiating into osteoclasts; experiment: TRAP staining of bone marrow cells from arthritis animal model cultured with M-CSF and RANKL; type: in vivo, mouse; details: bone marrow cells from treated CIA mice, cultured with M-CSF and RANKL for 7 days, FIG. 4B
Procedure: as §1, §2

[6] = dose-dependent, FIGS. 6B and 6C

## O=C(C[C@H]1NCCC[C@@H]1O)Cn1cnc2cc(Br)c(Cl)cc2c1=O (racemic) [halofuginone]
[1]
  differentiation of osteoclasts: effectively inhibit
[1]; [6]
  mRNA expression of MMP9: decreased
  mRNA expression of NFATc1: decreased
  mRNA expression of RANK: decreased
  mRNA expression of TRAP: decreased
  mRNA expression of calcitonin receptor(CTR): decreased
  mRNA expression of cathepsin K: decreased
[2]
  mRNA expression level of MMP9: decreased
  mRNA expression level of NFATc1: decreased
  mRNA expression level of OSCAR: decreased
  mRNA expression level of TRAP: decreased
  mRNA expression level of b3 integrin: decreased
  mRNA expression level of cathepsin K: decreased
[3]
  bone resorption potential: significantly reduced
[4]; FIG. 3D legend
  IDO expression in dendritic cells: increase
[4]; T cells co-cultured with dendritic cells co-stimulated with 1-MT (an IDO inhibitor) and halofuginone
  production of IL-17: no decrease
[4]; T cells co-cultured with dendritic cells stimulated with halofuginone, FIG. 3D
  production of IL-17: decrease
[5]
  number of TRAP positive cells: decreased
